“And” between values parts separate entries of the source, which are not always exact repeats. Identical values can stand only once.
Columns and labels:
[1] = Stability in rat liver microsomes; format: in vitro ADME; conditions: for % Residual Compound 1 / % Residual Compound 2: rat liver microsomes 1 mg/mL; for NADPH-dependent metabolism: rat liver microsomes; for % Residual compound following incubation with liver microsomes: rat microsomes 1 mg/mL; for % Residual Compound 2: 15 min
Experimental: Disappearance of parent Compound 1 was used to evaluate the in vitro metabolism thereof. Relative levels of unchanged Compound 1 were measured by HPLC-UV method 1. Residual Compound 1 is reported as percent difference from time zero or control. The HPLC-UV system was as follows:
Incubations with liver microsomes or cytosol were conducted in a final volume of 0.1 mL per incubation time point. […] DMSO (final DMSO concentration was 0.1%) was incubated at 37° C. from 0-60 min with pooled microsomal protein (1.0 mg/mL), suspended in incubation buffer (0.1 M potassium phosphate, pH 7.4, 5 mM MgCl2, and 0.1 mM EDTA). The microsomal reaction was initiated by the addition of NADPH (3 mM final concentration). Incubations with (a) no protein or (b) no NADPH served as controls. Reactions were terminated by the addition of 0.2 mL of stop solution (acetonitrile). The samples were vortex-mixed for 30 sec and then centrifuged at 10,000×g for 10 min. The supernatant was dried using a Labconco CentriVap concentrator and the dry residue reconstituted in water, transferred to an HPLC glass vial and analyzed by HPLC-UV method 1 (described above).
(§1) Metabolic stability of the proposed metabolites was conducted by incubating the chemically synthesized standards Compound 2, Compound 4 and Compound 3 as described above for Compound 1. When possible, formation of Compound 5 was verified by incubating samples with alkaline phosphatase (10 U) for 60 min at 37° C.

[2] = Metabolite profiling in rat liver microsomes; format: in vitro ADME; parameters: key: +: peak detected; ?: peak observed; ND: not detected; conditions: 50 μM Compound 1, 2 hours
Experimental: Preliminary identification of putative metabolites was conducted by comparing the retention time of observed metabolites with retention times obtained with chemically synthesized standards using the following HPLC-UV method:
Incubations with liver microsomes, liver cytosol or pig liver esterase were conducted in a final volume of 0.1 mL per incubation time point. Pooled microsomal protein (1.0 mg/mL) suspended in incubation buffer (0.1 M potassium phosphate, pH 7.4) was incubated for 2 hours at 37° C. with 50 μM Compound 1 from a stock solution in DMSO (final DMSO concentration was 0.1%); the microsomal reaction was initiated by the addition of an NADPH regenerating system (1.3 mM NADP^+, 3.3 mM glucose-6-phosphate, 0.4 U/ml glucose-6-phosphate dehydrogenase, and 3.3 mM MgCl2, final concentrations). Incubations with no NADPH or no protein served as controls. Reactions were terminated by the addition of 0.1 mL of stop solution (acetonitrile). The samples were vortex-mixed for 30 sec and then centrifuged at 10,000×g for 10 min. The supernatant was dried using a Labconco CentriVap concentrator and the dry residue reconstituted in water, transferred to an HPLC glass vial and analyzed by HPLC-UV method 2 (described above).
Results: Preliminary identification was accomplished by comparing LC elution of metabolites with that of available synthetic standards of putative metabolites (FIG. 2). […]

pig liver esterase = experiment: Incubation with pig liver esterase; format: in vitro ADME; conditions: for Residual compound following incubation with pig liver esterase: Esterase 14 U, 60 min, 10 μM
Experimental: Pig liver esterase (14 U) suspended in incubation buffer (0.1 M potassium phosphate, pH 7.4) was incubated for 60 min at 37° C. with 10 μM Compound 1 from a stock solution in DMSO (final DMSO concentration was 0.1%); reaction was initiated with the addition of test article. Incubations with no protein served as controls. Reactions were terminated by the addition of 0.1 mL of stop solution (acetonitrile). The samples were vortex-mixed for 30 sec and then centrifuged at 10,000×g for 10 min. The supernatant was dried using a Labconco CentriVap concentrator and the dry residue reconstituted in water, transferred to an HPLC glass vial and analyzed by HPLC-UV method 2 (described above).
as §1

[3] = Metabolite profile in rat feces; format: in vivo, male Sprague-Dawley rats; conditions: for Percent of Dose, Feces 0-24 h: after [14C]Compound 1; for % AD / % HPLC (percent of HPLC peak area in the sample extract) / fecal component, % of the administered dose (% AD): 24 h collection; for % of the total fecal excretion / fecal component, % of the administered dose (% AD): rat feces
Experimental: Pooled samples were prepared for the 24 h time interval from Groups 1C and 2C by combining a fixed percentage of the total weight of each individual animal sample homogenate for each group. The aliquots were pooled in a 15-mL polypropylene centrifuge tube. To the pooled sample (approximately 3 g each), 4.5 mL of MeOH-water (70:30) was added. The sample was vortexed for one minute, sonicated for 10 minutes, and then centrifuged at 5700×g for 10 minutes. The supernatant was transferred to a tube and the total volume of the supernatant was measured. The extraction procedure was repeated two additional times. The radioactivity in each extract was determined by LSC of duplicate aliquots (20 μL each) for extraction recovery. A portion (10% of total volume) of each extract was pooled for analysis by LSC and HPLC. The combined extracts were diluted (1:4) with aqueous mobile phase and analyzed using HPLC method 1 to obtain the metabolic profile. For comparing the in vitro with the in vivo metabolism data, these same fecal samples were analyzed by HPLC method 2.
Percent of the administered dose (% AD) for parent drug and each metabolite at each collection period=(% of the total radioactivity in the sample attributed to the metabolite)*(total radioactivity expressed as % of the administered dose, recovered during the corresponding collection period).
The samples were analyzed by HPLC with radiochemical detection. The distribution of metabolites as % of the administered dose was derived from these analyses. Both pooled fecal extracts were also analyzed by HPLC method 2. Metabolites R^1, R^2, R^3, R^4, R^5, R^6, R^7 and R^8 were characterized based on retention time.

[4] = group 1C (IV) pooled fecal extract
[5] = group 2C (PO) pooled fecal extract

Residual compound following incubation with pig liver esterase (pig liver esterase) [%] | Structure (SMILES) | In vitro metabolite profile in microsomes following incubation with Compound 1 (peak detection) [2] | Total excretion (% AD), feces ([3]; IV (1C)) [% AD] | Percent of Dose, Feces 0-24 h ([3]; IV) | Percent of Dose, Feces 0-24 h ([3]; Oral) | Total excretion (% AD), feces ([3]; PO (2C)) [% AD] | % AD [3, 4] [% AD] | % HPLC (percent of HPLC peak area in the sample extract) [3, 4] [%] | % AD [3, 5] [% AD] | % HPLC (percent of HPLC peak area in the sample extract) [3, 5] [%] | % of the total fecal excretion ([3]; IV dose 50 mg/kg) [%] | fecal component, % of the administered dose (% AD) ([3]; IV dose 50 mg/kg, 50 mg/kg) | % of the total fecal excretion ([3]; PO dose 100 mg/kg) [%] | fecal component, % of the administered dose (% AD) ([3]; PO dose 100 mg/kg, 100 mg/kg) | also measured
97 | CC(C)(CO)C(=O)SCCOP(N)(=O)OC[C@H]1O[C@@H](n2cnc3c(=O)[nH]c(N)nc32)[C@](C)(O)[C@@H]1O (mixture of isomers) [Compound 3, {9-[(2R)2-C-methyl-β-D-ribo-furanosyl]-guanin}-5′-yl-O-(hydroxy-tert-butyl-S-acyl-2-thioethyl) phosphoramidate] | – | – | – | – | – | – | – | – | – | – | – | – | – | NADPH-dependent metabolism ([1]; 60 min, 50 μM): 10%; % Residual compound following incubation with liver microsomes ([1]; 60 min, 50 μM, NADPH): 90%; % Residual compound following incubation with liver microsomes ([1]; 60 min, 50 μM, No Cofactor): 101%
– | C[C@@]1(O)[C@H](O)[C@@H](CO)O[C@H]1n1cnc2c(=O)[nH]c(N)nc21 [2′-C-methyl guanosine, 9-(2-C-methyl-β-D-ribofuranosyl)guanine, reference compound] | + | 16.0 | 16.0% of Dose | 25.6% of Dose | 25.6 | 16.0 | 41.0 | 25.6 | 28.1 | 41.0 | 16 % AD | 28.1 | 25.6 % AD and 26 % AD | –
0 | C[C@@]1(O)[C@H](O)[C@@H](COP(=O)(O)NCc2ccccc2)O[C@H]1n1cnc2c(=O)[nH]c(N)nc21 [Compound 2, [(2R)-2-methyl-β-D-ribofuranosyl]guanine-N-benzylaminyl-5′-monophosphate] | – | – | – | – | – | – | – | – | – | – | – | – | – | % Residual Compound 2 ([1]; 10 μM, NADPH): 0%; % Residual Compound 2 ([1]; 10 μM, No Cofactor): 0%

Structure (SMILES) | Residual compound following incubation with pig liver esterase (pig liver esterase) [%] | In vitro metabolite profile in microsomes following incubation with Compound 1 (peak detection) [2] | Total excretion (% AD), feces ([3]; IV (1C)) [% AD] | Percent of Dose, Feces 0-24 h ([3]; IV) | Percent of Dose, Feces 0-24 h ([3]; Oral) | Total excretion (% AD), feces ([3]; PO (2C)) [% AD] | % AD [3, 4] [% AD] | % HPLC (percent of HPLC peak area in the sample extract) [3, 4] [%] | % AD [3, 5] [% AD] | % HPLC (percent of HPLC peak area in the sample extract) [3, 5] [%] | % of the total fecal excretion ([3]; IV dose 50 mg/kg) [%] | fecal component, % of the administered dose (% AD) ([3]; IV dose 50 mg/kg, 50 mg/kg) | % of the total fecal excretion ([3]; PO dose 100 mg/kg) [%] | fecal component, % of the administered dose (% AD) ([3]; PO dose 100 mg/kg, 100 mg/kg) | also measured
CC(C)(CO)C(=O)SCCOP(=O)(NCc1ccccc1)OC[C@H]1O[C@@H](n2cnc3c(=O)[nH]c(N)nc32)[C@](C)(O)[C@@H]1O (mixture of isomers) [Compound 1, 3-hydroxy-2,2-dimethyl-thiopropionic acid S-(2-{[(2R,3R,4R,5R)-5-(2-amino-6-oxo-1,6-dihydro-purin-9-yl)-3,4-dihydroxy-4-methyl-tetrahydro-furan-2-ylmethoxy]-benzylamino-phosphoryloxy}-ethyl) ester] | 75 | + | 19.7 | 19.7% of Dose | 65.6% of Dose | 65.6 | 19.7 | 50.6 | 65.6 | 71.9 | 50.6 | 19.7 % AD and 20 % AD | 71.9 | 65.6 % AD and 66 % AD | % Residual Compound 1 ([1]; 10 μM, 0 min, NADPH): 100%; % Residual Compound 1 ([1]; 10 μM, 0 min, No Cofactor): 100%; % Residual Compound 1 ([1]; 10 μM, 30 min, NADPH): 53%; % Residual Compound 1 ([1]; 10 μM, 30 min, No Cofactor): 103%; % Residual Compound 1 ([1]; 10 μM, 60 min, NADPH): 36%; % Residual Compound 1 ([1]; 10 μM, 60 min, No Cofactor): 103%; NADPH-dependent metabolism ([1]; NADPH, 60 min, 10 μM): 64%; Compound 1 converted to Compound 2 (pig liver esterase; pig liver esterase, 60-min incubation): 25%

Source: patent publication US20100003217A1, “Compounds and Pharmaceutical Compositions for the Treatment of Viral Infections” (priority 2008, published 2010)
